Test results taken from PubChem BioAssay (NCI).
Where “and” joins values, the source holds several entries; their conditions need not be identical. Equal values may be shown once.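 Dose response: 5 concentrations. Exposure: 48 h. Format: 96-well plates. Endpoint: linear interpolation; highest concentration if not reached. At the GI50, growth is halved. TGI: total growth inhibition.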

Columns and labels:
Assay in all cases: growth of human tumour cells (NCI), 48 h
[1] = test system: OVCAR-8 ovarian
[2] = test system: HOP-62 NSCLC
[3] = test system: HS 578T breast
[4] = test system: SK-MEL-28 melanoma
[5] = test system: EKVX NSCLC
[6] = test system: MDA-MB-435
[7] = test system: KM12 colon
[8] = test system: CAKI-1 renal
[9] = test system: HOP-92 NSCLC
[10] = test system: NCI-H522 lung
[11] = test system: DU-145 prostate
[12] = test system: SK-OV-3 ovarian
[13] = test system: MCF7 breast
[14] = test system: SK-MEL-5 melanoma
[15] = test system: MDA-MB-231 breast
[16] = test system: SF-539 CNS
[17] = test system: OVCAR-3 ovarian
[18] = test system: MDA-N
[19] = test system: OVCAR-5 ovarian
[20] = test system: LOX IMVI melanoma
[21] = test system: NCI-H460 lung
[22] = test system: NCI-H23 lung
[23] = test system: UO-31 renal
[24] = test system: COLO 205 colon
[25] = test system: UACC-257 melanoma
[26] = test system: SNB-75 CNS
[27] = test system: UACC-62 melanoma
[28] = test system: HCT-15 colon
[29] = test system: HCC-2998 colon
[30] = test system: OVCAR-4 ovarian
[31] = test system: U251 CNS
[32] = test system: IGROV1 ovarian
[33] = test system: SN12C renal
[34] = test system: SW-620 colon
[35] = test system: RXF 393 renal
[36] = test system: A549 NSCLC
[37] = test system: NCI/ADR-RES ovarian
[38] = test system: MOLT-4 leukemia
[39] = test system: 786-0 renal
[40] = test system: PC-3 prostate
[41] = test system: M14 melanoma
[42] = test system: SF-295 CNS
[43] = test system: CCRF-CEM leukemia
[44] = test system: BT-549 breast
[45] = test system: SF-268 CNS
[46] = test system: ACHN renal
[47] = test system: HCT-116 colon
[48] = test system: SK-MEL-2 melanoma
[49] = test system: SNB-19 CNS
[50] = test system: TK-10 renal
[51] = test system: RPMI-8226 leukemia
[52] = test system: K-562 leukemia
[53] = test system: HT29 colon
[54] = test system: A498 renal
[55] = test system: MALME-3M melanoma
[56] = test system: HL-60(TB) leukemia
[57] = test system: SR leukemia
[58] = test system: NCI-H226 lung
[59] = test system: T-47D breast

Cc1cc(O)c(/C=N/C(=O)NN)c(=O)o1
TGI [1]: > 100 µM | TGI [2]: > 100 µM | TGI [3]: > 100 µM | TGI [4]: > 100 µM | TGI [5]: > 100 µM | TGI [6]: > 100 µM | TGI [7]: > 100 µM | TGI [8]: > 100 µM | TGI [9]: > 100 µM | TGI [10]: > 100 µM | TGI [11]: > 100 µM | TGI [12]: > 100 µM | TGI [13]: > 100 µM | TGI [14]: > 100 µM | TGI [15]: > 100 µM | TGI [16]: > 100 µM | TGI [17]: > 100 µM | TGI [18]: > 100 µM | TGI [19]: > 100 µM | TGI [20]: > 100 µM | TGI [21]: > 100 µM | TGI [22]: > 100 µM | TGI [23]: > 100 µM | TGI [24]: > 100 µM | TGI [25]: > 100 µM | TGI [26]: > 100 µM | TGI [27]: > 100 µM | TGI [28]: > 100 µM | TGI [29]: > 100 µM | TGI [30]: > 100 µM | TGI [31]: > 100 µM | TGI [32]: > 100 µM | TGI [33]: > 100 µM | TGI [34]: > 100 µM | TGI [35]: > 100 µM | TGI [36]: > 100 µM | TGI [37]: > 100 µM | TGI [38]: > 100 µM | TGI [39]: > 100 µM | TGI [40]: > 100 µM | TGI [41]: > 100 µM | TGI [42]: > 100 µM | TGI [43]: > 100 µM | TGI [44]: > 100 µM | TGI [45]: > 100 µM | TGI [46]: > 100 µM | TGI [47]: > 100 µM | TGI [48]: > 100 µM | TGI [49]: > 100 µM | TGI [50]: > 100 µM

CC[C@@]1(O)C(=O)OCc2c1cc1n(c2=O)Cc2c-1nc1ccccc1c2/C=N\NC(=O)C(N)=O
TGI [1]: 37 µM | TGI [2]: > 45.1 µM | TGI [3]: > 100 µM | TGI [4]: > 100 µM | TGI [51]: > 100 µM | TGI [5]: > 100 µM | TGI [6]: > 100 µM | TGI [7]: > 100 µM | TGI [8]: 17.5 µM | TGI [9]: 12.9 µM | TGI [52]: > 100 µM | TGI [10]: 46.5 µM | TGI [11]: 10.9 µM | TGI [12]: 27.5 µM | TGI [13]: > 45.4 µM | TGI [14]: 2.96 µM | TGI [15]: > 100 µM | TGI [16]: 0.177 µM | TGI [17]: > 100 µM | TGI [18]: > 100 µM | TGI [19]: > 100 µM | TGI [20]: 3.72 µM | TGI [21]: 29.9 µM | TGI [22]: 3.67 µM | TGI [23]: 12 µM | TGI [24]: > 100 µM | TGI [25]: > 100 µM | TGI [26]: > 26 µM | TGI [27]: 3.54 µM | TGI [28]: > 100 µM | TGI [29]: > 100 µM | TGI [30]: > 100 µM | TGI [31]: 13.6 µM | TGI [32]: 49.4 µM | TGI [33]: > 100 µM | TGI [34]: > 100 µM | TGI [35]: 37.5 µM | TGI [36]: > 100 µM | TGI [53]: > 100 µM | TGI [37]: > 73.5 µM | TGI [38]: > 23.7 µM | TGI [39]: 16 µM | TGI [40]: > 100 µM | TGI [41]: 14.3 µM | TGI [42]: 14.8 µM | TGI [54]: 9.81 µM | TGI [44]: > 90.9 µM | TGI [45]: > 100 µM | TGI [46]: 0.814 µM | TGI [55]: > 79.3 µM | TGI [47]: > 53.9 µM | TGI [48]: > 77.8 µM | TGI [56]: > 100 µM | TGI [49]: 9.65 µM | TGI [50]: > 100 µM

O=c1[nH]cc(F)c(=O)[nH]1
GI50 [57]: 1.26 µM and 0.514 µM | TGI [57]: > 100 µM and > 33.4 µM and 609 µM | GI50 [3]: > 100 µM and 14.3 µM | TGI [3]: > 100 µM and 2250 µM and > 1170 µM | GI50 [4]: 5.99 µM and 1.5 µM | TGI [5]: > 100 µM and 2250 µM and > 2500 µM | GI50 [58]: 23.9 µM and 59.6 µM and 186 µM | TGI [58]: > 100 µM and 2170 µM and > 2500 µM | TGI [9]: > 100 µM and 2040 µM and > 2500 µM | GI50 [52]: 4.75 µM and 12 µM | TGI [52]: 2190 µM and > 1830 µM | GI50 [10]: 11 µM and 11.5 µM and 82.9 µM | TGI [11]: > 100 µM and 2160 µM and > 2500 µM | TGI [18]: 2390 µM and > 2500 µM | TGI [26]: > 100 µM and 1990 µM and 2430 µM | GI50 [32]: 6.13 µM and 2.37 µM and 20.6 µM | TGI [34]: > 100 µM and 2440 µM and > 2360 µM | GI50 [35]: 25.9 µM and 2.91 µM and 23.8 µM | GI50 [38]: 6.25 µM and 0.871 µM | TGI [40]: > 100 µM and 2250 µM and > 2500 µM | GI50 [59]: 7.97 µM and 9.73 µM and 17.6 µM | GI50 [42]: 6.45 µM and 0.721 µM | GI50 [54]: 4.81 µM and 5.2 µM | GI50 [43]: 9.86 µM and 8.53 µM | TGI [43]: 1990 µM and > 1040 µM | GI50 [44]: 7.32 µM and 6.94 µM and 27.1 µM | TGI [44]: > 100 µM and 2090 µM and > 1390 µM | TGI [45]: > 100 µM and 2280 µM and > 2500 µM | TGI [48]: > 100 µM and 2190 µM and > 2500 µM | TGI [56]: > 100 µM and 1560 µM and 298 µM

CC(=O)C1C(=O)C(=O)N(c2ccc([N+](=O)[O-])cc2Cl)C1=O (stereo not drawn)
TGI [1]: > 100 µM | TGI [2]: > 100 µM | TGI [3]: > 100 µM | TGI [4]: > 100 µM | TGI [5]: > 100 µM | TGI [58]: > 100 µM | TGI [6]: > 100 µM | TGI [7]: > 100 µM | TGI [8]: > 100 µM | TGI [9]: > 100 µM | TGI [10]: > 100 µM | TGI [11]: > 100 µM | TGI [12]: > 100 µM | TGI [13]: > 100 µM | TGI [14]: > 100 µM | TGI [15]: > 100 µM | TGI [16]: > 100 µM | TGI [17]: > 100 µM | TGI [18]: > 100 µM | TGI [19]: > 100 µM | TGI [20]: > 100 µM | TGI [21]: > 100 µM | TGI [22]: > 100 µM | TGI [23]: > 100 µM | TGI [24]: > 100 µM | TGI [25]: > 100 µM | TGI [26]: > 100 µM | TGI [27]: > 100 µM | TGI [28]: > 100 µM | TGI [29]: > 100 µM | TGI [30]: > 100 µM | TGI [31]: > 100 µM | TGI [32]: > 100 µM | TGI [33]: > 100 µM | TGI [34]: > 100 µM | TGI [35]: > 100 µM | TGI [36]: > 100 µM | TGI [53]: > 100 µM | TGI [37]: > 100 µM | TGI [38]: > 100 µM | TGI [39]: > 100 µM | TGI [40]: > 100 µM | TGI [41]: > 100 µM | TGI [42]: > 100 µM | TGI [43]: > 100 µM | TGI [44]: > 100 µM | TGI [45]: > 100 µM | TGI [46]: > 100 µM | TGI [47]: > 100 µM | TGI [48]: > 100 µM | TGI [56]: > 100 µM | TGI [49]: > 100 µM | TGI [50]: > 100 µM
